Results as given in the supplement of paper PMC10307832.

Assays:
Assay in all cases: relative viability (nuclei count vs DMSO), 5 days (fraction); higher = more cells survive
JZL-184 + Pictilisib = compound: C1CN(CCC1C(C2=CC3=C(C=C2)OCO3)(C4=CC5=C(C=C4)OCO5)O)C(=O)OC6=CC=C(C=C6)[N+](=O)[O-] [JZL-184] + CS(=O)(=O)N1CCN(Cc2cc3nc(-c4cccc5[nH]ncc45)nc(N4CCOCC4)c3s2)CC1 [Pictilisib] (partner 1 µM)
Procedure, shortened: (§1)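 Relative viability was taken as the ratio of nuclei in treated wells to nuclei in vehicle wells. Lung cancer cell lines in 1536-well plates received compounds by pin tool one day after seeding, either one drug alone or a fixed anchor-drug dose plus five library-drug doses (not always all listed) in √10 steps. Nuclei were counted on 4× images after 5 days of treatment, and values are medians of duplicate plates.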

JZL-184 + Luminespib = compound: C1CN(CCC1C(C2=CC3=C(C=C2)OCO3)(C4=CC5=C(C=C4)OCO5)O)C(=O)OC6=CC=C(C=C6)[N+](=O)[O-] [JZL-184] + CCNC(=O)c1noc(-c2cc(C(C)C)c(O)cc2O)c1-c1ccc(CN2CCOCC2)cc1 [Luminespib] (partner 0.01 µM)
Procedure, shortened: as §1

JZL-184 + Crizotinib = compound: C1CN(CCC1C(C2=CC3=C(C=C2)OCO3)(C4=CC5=C(C=C4)OCO5)O)C(=O)OC6=CC=C(C=C6)[N+](=O)[O-] [JZL-184] + C[C@@H](Oc1cc(-c2cnn(C3CCNCC3)c2)cnc1N)c1c(Cl)ccc(F)c1Cl [Crizotinib] (partner 1 µM)
Procedure, shortened: as §1

JZL-184 + Linsitinib = compound: C1CN(CCC1C(C2=CC3=C(C=C2)OCO3)(C4=CC5=C(C=C4)OCO5)O)C(=O)OC6=CC=C(C=C6)[N+](=O)[O-] [JZL-184] + C[C@]1(O)C[C@@H](c2nc(-c3ccc4ccc(-c5ccccc5)nc4c3)c3c(N)nccn32)C1 [Linsitinib] (partner 1 µM)
Procedure, shortened: as §1

JZL-184 + Phenformin = compound: C1CN(CCC1C(C2=CC3=C(C=C2)OCO3)(C4=CC5=C(C=C4)OCO5)O)C(=O)OC6=CC=C(C=C6)[N+](=O)[O-] [JZL-184] + N=C(N)NC(=N)NCCc1ccccc1 [Phenformin] (partner 250 µM)
Procedure, shortened: as §1

Cell Line | relative viability (JZL-184 + Pictilisib; first compound 0.04 µM) | relative viability (JZL-184 + Pictilisib; first compound 1.265 µM) | relative viability (JZL-184 + Pictilisib; first compound 4 µM) | relative viability (JZL-184 + Luminespib; first compound 0.04 µM) | relative viability (JZL-184 + Luminespib; first compound 0.4 µM) | relative viability (JZL-184 + Luminespib; first compound 1.265 µM) | relative viability (JZL-184 + Luminespib; first compound 4 µM) | relative viability (JZL-184 + Crizotinib; first compound 0.04 µM) | relative viability (JZL-184 + Crizotinib; first compound 1.265 µM) | relative viability (JZL-184 + Crizotinib; first compound 4 µM) | relative viability (JZL-184 + Linsitinib; first compound 0.04 µM) | relative viability (JZL-184 + Linsitinib; first compound 0.4 µM) | relative viability (JZL-184 + Linsitinib; first compound 1.265 µM) | relative viability (JZL-184 + Linsitinib; first compound 4 µM) | relative viability (JZL-184 + Phenformin; first compound 0.04 µM) | relative viability (JZL-184 + Phenformin; first compound 0.4 µM) | relative viability (JZL-184 + Phenformin; first compound 1.265 µM) | relative viability (JZL-184 + Phenformin; first compound 4 µM) | relative viability (JZL-184 + Pictilisib; first compound 0.4 µM) | relative viability (JZL-184 + Crizotinib; first compound 0.4 µM)
NCI-H661 | 0.372 | 0.455 | 0.452 | 0.969 | 0.898 | 0.938 | 0.975 | 0.933 | 0.935 | 0.928 | 0.542 | 0.477 | 0.712 | 0.521 | 0.259 | 0.287 | 0.292 | 0.332 | – | –
LU99A | 0.353 | 0.329 | 0.313 | 0.279 | 0.224 | 0.283 | 0.321 | 0.657 | 0.622 | 0.63 | 0.582 | 0.511 | 0.529 | 0.442 | 0.86 | 0.763 | 0.999 | 0.968 | 0.315 | 0.529
SW 1573 | 0.609 | 0.491 | 0.498 | 0.224 | 0.276 | 0.251 | 0.222 | 0.904 | 0.883 | 0.759 | 0.856 | 0.833 | 0.781 | 0.814 | 0.446 | 0.296 | 0.373 | 0.283 | 0.364 | 0.724
HOP-62 | 0.69 | 0.901 | 0.94 | 1.03 | 0.968 | 0.902 | 0.957 | 1.01 | 1.05 | 0.839 | 1.09 | 1.13 | 0.992 | 0.784 | 0.787 | 0.639 | 0.705 | 0.683 | 0.822 | 0.905
UMC-11 | 1.16 | 0.984 | 0.824 | 1.26 | 0.992 | 1.05 | 1.04 | 0.787 | 0.555 | 0.57 | 1.43 | 0.935 | 1.09 | 0.944 | 0.289 | 0.319 | 0.3 | 0.331 | 0.808 | 0.679
LCLC-103H | 0.574 | 0.654 | 0.615 | 1.04 | 0.829 | 0.835 | 0.866 | 1.02 | 1.02 | 1 | 1.06 | 1.16 | 1 | 1.05 | 0.338 | 0.296 | 0.345 | 0.323 | 0.49 | 0.959
NCI-H1734 | 0.519 | 0.505 | 0.482 | 0.207 | 0.206 | 0.185 | 0.222 | 0.806 | 0.672 | 0.701 | 0.852 | 0.796 | 0.898 | 0.86 | 0.469 | 0.36 | 0.38 | 0.349 | 0.471 | 0.617
EKVX | 0.501 | 0.446 | 0.432 | 0.795 | 0.71 | 0.944 | 0.863 | 0.934 | 1.02 | 0.741 | 0.987 | 1.01 | 0.948 | 0.937 | 0.236 | 0.243 | 0.244 | 0.238 | 0.407 | 0.972
HARA | 0.356 | 0.424 | 0.577 | 0.808 | 0.739 | 1.03 | 0.757 | 1.17 | 0.995 | 1.03 | 0.97 | 0.869 | 0.935 | 0.994 | 0.376 | 0.39 | 0.481 | 0.407 | 0.363 | 0.99
EMC-BAC-2 | 0.59 | 0.565 | 0.488 | 1.26 | 1.11 | 1.24 | 1.09 | 0.939 | 0.785 | 0.704 | 0.855 | 0.793 | 0.791 | 0.784 | 0.609 | 0.476 | 0.568 | 0.456 | 0.559 | 0.726
PC-14 | 0.867 | 0.722 | 0.589 | 0.119 | 0.137 | 0.146 | 0.287 | 0.909 | 0.828 | 0.86 | 1.05 | 0.965 | 0.95 | 0.942 | 0.756 | 0.473 | 0.72 | 0.504 | 0.619 | 0.966
NCI-H520 | 0.351 | 0.311 | 0.245 | 0.222 | 0.226 | 0.239 | 0.209 | 0.813 | 0.907 | 0.665 | 1.15 | 0.929 | 0.926 | 0.897 | 0.533 | 0.48 | 0.739 | 0.485 | 0.221 | 0.707
NCI-H1755 | 0.432 | 0.545 | 0.401 | 0.598 | 0.418 | 0.26 | 0.405 | 0.933 | 0.835 | 0.793 | 0.976 | 1.01 | 1.01 | 0.943 | 0.636 | 0.621 | 0.614 | 0.601 | 0.339 | 0.894
NCI-H2087 | 0.824 | 0.934 | 1 | 0.167 | 0.134 | 0.157 | 0.209 | 0.928 | 0.757 | 0.93 | 1.14 | 0.765 | 0.999 | 0.961 | 0.538 | 0.449 | 0.515 | 0.486 | 0.677 | 0.816
NCI-H2023 | 0.27 | 0.301 | 0.241 | 0.958 | 0.624 | 0.918 | 0.575 | 0.726 | 0.671 | 0.578 | 0.664 | 0.756 | 0.757 | 0.522 | 0.477 | 0.342 | 0.469 | 0.35 | 0.22 | 0.626
